{
  "source": "patent US6486161B1",
  "about": "“Use of rifamycin derivative for treating mastitis in a domestic animal” (priority 2000, dated 2002)",
  "key": {"Oral toxicity in mice": {"assay": "Oral toxicity in mice", "format": "in vivo", "details": "orally administered to mice, 1,000 mg/kg"}, "[1]": {"system": "rifampin-resistant S. aureus isolated from diseased animals", "format": "cell-based, Staphylococcus aureus", "details": "range over the 13 rifampin-resistant strains", "description": "The antibacterial effect of the rifamycin derivative (1) against rifampin-resistant Staphylococcus aureus bacterial strains was determined. The tested bacterial strains were isolated from a variety of animal diseases as well as laboratory strains.\nAll bacteria were maintained on 3 mm glass beads immersed in trypticase soy broth (BBL Microbiology Systems, Cockeysville, Md.) with 10% glycerol and held at −70° C. until revived. Prior to testing, the organisms were subcultured on tryptose blood agar base (Difco, Detroit, Mich.) supplemented with 5% sheep blood for 24 hours at 35° C.\nThe compounds were dissolved in 95% ethanol and diluted to 10% ethanol in sterile, distilled water except for the compounds used in the in vivo testing where saline was used to dilute the original ethanol/drug suspension. Further dilutions were conducted in water or saline.\nMICs were determined using the microbroth dilution method. In addition to the test organisms, the following quality control strain also was tested: Staphylococcus aureus ATCC 29213. The results are shown in Table 5, wherein R is the alkyl group R in the rifamycin derivative (1)."}, "[2]": {"system": "Staphylococcus aureus B83-1 strain (derived from Newbould 305)", "assay": "Therapeutic test in bovine mammary glands with experimental mastitis", "format": "in vivo, Holstein dairy cow", "description": "As the rifamycin derivative (1), a compound A wherein R is methyl group, i. e. R≡ CH3, was examined for its therapeutic effect on bovine mastitis as follows.\nThe therapeutic test for infection in bovine mammary glands was carried out by inoculating […] of Staphylococcus [Staphylococcus aureus B83-1 strain (derived from Newbould 305)] into one mammary gland of a Holstein dairy cow (2-5 years old) to cause experimental mastitis.\nTo one mammary gland of each cow in a treated group, the compound A used in the present invention was administered (infused through the lactiferous duct) in an amount of 50 mg in 10 ml of benzyl alcohol per day successively for two days, twenty-one days after the infection. To one mammary gland of each cow in a control group, benzyl alcohol was administered in an amount of 10 ml per day in the same manner as in the treated group. The therapeutic effect of the compound A was examined by counting colony forming units (CFUs) of Staphylococcus in 1 ml of milk obtained from a cow subjected to the test. Comparing the above two groups, the therapeutic effect of the compound A on bovine mastitis was evaluated.\nStaphylococcus was inoculated into forty-four mammary glands of eleven cows. Twenty-one days later, the number of mammary glands wherein Staphylococcus was separated from milk, i.e. number of mammary glands with mastitis, was counted. […]"}},
  "data": [
    {"smiles": "COC1/C=C/OC2(C)Oc3c(C)c(O)c4c(=O)c(c5oc6cc(N7CCN(C)CC7)cc(O)c6nc-5c4c3C2=O)NC(=O)/C(C)=C\\C=C\\C(C)C(O)C(C)C(O)C(C)C(OC(C)=O)C1C", "note": "(stereo not shown) [R = methyl]", "values": [
      {"measurement": "toxicity", "setting": "Oral toxicity in mice", "value": "did not show any toxicity"},
      {"measurement": "MIC Range", "setting": "[1]", "value": "0.06 to 4.0", "unit": "µg/mL"},
      {"measurement": "curing ratio", "setting": "[2]; cow, 50 mg per day for two days infused through the lactiferous duct, twenty-one days after infection", "value": 64, "unit": "%"},
      {"measurement": "mammary glands negative (at most ten CFU per ml milk) in all the examined days", "setting": "[2]; of twenty-two treated mammary glands, 50 mg in 10 ml benzyl alcohol per day for two days via lactiferous duct, 7-28 days after administration", "value": "fourteen"}
    ]}
  ]
}
